Results: paper PMC4356482 (Bioorganic & medicinal chemistry letters, 2011)
pKd: −log10 of the molar value.

Key:
Type in all cases: binding
[1] = target: T1, fatty acid synthase I (FAS I) (Mycobacterium tuberculosis, UniProt P95029); assay: biochemical
[2] = target: T1, fatty acid synthase I (FAS I); assay: STD-NMR, competition titration with PZA
[3] = target: T1, fatty acid synthase I (FAS I); assay: STD-NMR

| Compound | STD-NMR, competition titration with PZA [2] | also measured |
| --- | --- | --- |
| NC(=O)c1cnccn1 [PZA, Pyrazinamide] | – | pKd [1]: 3.91 to 4.15 |
| O=C(O)c1cnccn1 [POA, pyrazinoic acid] | although POA binds reversibly to Mtb FAS I it does not compete with PZA since PZA is apparently not displaced | – |
| NC(=O)C1=CN([C@@H]2O[C@H](COP(=O)(O)OP(=O)(O)OC[C@H]3O[C@@H](n4cnc5c(N)ncnc54)[C@H](OP(=O)(O)O)[C@@H]3O)[C@@H](O)[C@H]2O)C=CC1 [NADPH] | Consistent with the binding of NADPH to Mtb FAS I the intensity of the NADPH resonances increases. | – |
| C/C=C/C/C=C/CCC(=O)[C@H]1O[C@H]1C(N)=O [Cerulenin] | – | STD-NMR (positive control, 350 μM cerulenin) [3]: displays signals corresponding to cerulenin resonances that are indicative of cerulenin binding to Mtb FAS I |
